Measured values: ChEMBL document CHEMBL1142900, “Biological profile of new apoptotic agents based on 2,4-pyrido[2,3-d]pyrimidine derivatives” (Bioorg Med Chem, 2007)
The source made the active and inactive calls. The rule behind the calls is not given here.

Assays:
T-24 [1] = assay: Growth inhibition of human T24 cells by neutral red assay; type: functional, cell-based
HT-29 [2] = assay: Growth inhibition of human HT29 cells by neutral red assay; type: functional, cell-based
MDA-MB-231 [3] = assay: Growth inhibition of human MDA-MB-231 cells by neutral red assay; type: functional, cell-based
HT-29 [4] = assay: Cell cycle arrest in HT29 cells by accumulation at subG1 phase at 8.9 uM after 12 hrs; type: functional, Homo sapiens
T-24 [5] = assay: Cell cycle arrest in T24 cells by accumulation at subG1 phase at 5 uM after 12 hrs; type: functional, Homo sapiens
HT-29 [6] = assay: Cell cycle arrest in HT29 cells by accumulation at G2 phase at 8.9 uM after 10 hrs; type: functional, Homo sapiens
Caspase-3 (Homo sapiens) [7] = biological target: T1, Caspase-3 (Homo sapiens) (UniProt P42574); assay: Effect on MDA-MB-231 cell lysate caspase 3 activity after 48 hrs relative to control by substrate assay; type: cell-based
T1 sequence (whole entry): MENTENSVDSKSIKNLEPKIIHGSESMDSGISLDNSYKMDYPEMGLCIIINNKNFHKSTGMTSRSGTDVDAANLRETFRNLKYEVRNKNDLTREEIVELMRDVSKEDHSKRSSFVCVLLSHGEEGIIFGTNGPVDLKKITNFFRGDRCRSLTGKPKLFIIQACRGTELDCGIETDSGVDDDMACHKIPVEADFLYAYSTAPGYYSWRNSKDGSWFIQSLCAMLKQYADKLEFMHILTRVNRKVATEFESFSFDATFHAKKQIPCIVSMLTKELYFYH

T-24 [8] = assay: Cell cycle arrest in T24 cells by accumulation at G2 phase at 5 uM after 8 hrs; type: functional, Homo sapiens
Caspase-3 (Homo sapiens) [9] = biological target: T1, Caspase-3 (Homo sapiens); assay: Effect on MDA-MB-231 cell lysate caspase 3 activity after 24 hrs relative to control by substrate assay; type: cell-based
[10] = Cytotoxicity against CRL8799 cells; type: cell-based; conditions: human
HT-29 [11] = assay: Effect on apoptosis in HT29 cells assessed as DNA fragmentation after 8 hrs; type: functional, cell-based; conditions: Homo sapiens
T-24 [12] = assay: Increase in cell death of T24 cells; type: functional, cell-based; conditions: Homo sapiens, TDE = time-dependent effect
HT-29 [13] = assay: Effect on apoptosis in HT29 cells assessed as increase in caspase 3 activation after 48 hrs relative to control by flow cytometry; type: functional, cell-based; conditions: Homo sapiens
T-24 [14] = assay: Cell cycle arrest in T24 cells by accumulation at G2 phase at 5 uM after 12 hrs; type: functional, Homo sapiens
T-24 [15] = assay: Cell cycle arrest in T24 cells by accumulation at G2 phase at 5 uM after 10 hrs; type: functional, Homo sapiens
MDA-MB-231 [16] = assay: Increase in cell death of MDA-MB-231 cells; type: functional, cell-based; conditions: Homo sapiens, TDE = time-dependent effect
T-24 [17] = assay: Effect on apoptosis in T24 cells assessed as increase in caspase 3 activation after 24 hrs relative to control by flow cytometry; type: functional, cell-based; conditions: Homo sapiens
HT-29 [18] = assay: Cell cycle arrest in HT29 cells by accumulation at S phase at 8.9 uM after 12 hrs; type: functional, Homo sapiens
HT-29 [19] = assay: Cell cycle arrest in HT29 cells by accumulation at G1 phase after 24 hrs; type: functional, Homo sapiens
T-24 [20] = assay: Cell cycle arrest in T24 cells by accumulation at S phase at 5 uM after 10 hrs; type: functional, Homo sapiens
HT-29 [21] = assay: Cell cycle arrest in HT29 cells by accumulation at G2 phase at 8.9 uM after 8 hrs; type: functional, Homo sapiens
T-24 [22] = assay: Cell cycle arrest in T24 cells by accumulation at S phase at 5 uM after 12 hrs; type: functional, Homo sapiens
T-24 [23] = assay: Cell cycle arrest in T24 cells by accumulation at G1 phase at 5 uM after 12 hrs; type: functional, Homo sapiens
T-24 [24] = assay: Cell cycle arrest in T24 cells by accumulation at subG1 phase at 5 uM after 8 hrs; type: functional, Homo sapiens
HT-29 [25] = assay: Cell cycle arrest in HT29 cells by accumulation at S phase at 8.9 uM after 10 hrs; type: functional, Homo sapiens
T-24 [26] = assay: Cell cycle arrest in T24 cells by accumulation at S phase after 24 hrs; type: functional, Homo sapiens
HT-29 [27] = assay: Cell cycle arrest in HT29 cells by accumulation at S phase at 8.9 uM after 8 hrs; type: functional, Homo sapiens
HT-29 [28] = assay: Cell cycle arrest in HT29 cells by accumulation at G1 phase at 8.9 uM after 8 hrs; type: functional, Homo sapiens
[29] = Growth inhibition of human HTB26 cells by neutral red assay; type: functional, cell-based
HT-29 [30] = assay: Cell cycle arrest in HT29 cells by accumulation at G2/M phase after 24 hrs at 0.89 uM; type: functional, Homo sapiens
T-24 [31] = assay: Cell cycle arrest in T24 cells by accumulation at G1 phase at 5 uM after 10 hrs; type: functional, Homo sapiens
T-24 [32] = assay: Cell cycle arrest in T24 cells by accumulation at G1 phase after 24 hrs; type: functional, Homo sapiens
Caspase-3 (Homo sapiens) [33] = biological target: T1, Caspase-3 (Homo sapiens); assay: Effect on MDA-MB-231 cell lysate caspase 3 activity after 14 hrs relative to control by substrate assay; type: cell-based
T-24 [34] = assay: Cell cycle arrest in T24 cells by accumulation at G2/M phase after 24 hrs at 0.6 uM; type: functional, Homo sapiens
HT-29 [35] = assay: Effect on apoptosis in HT29 cells assessed as increase in caspase 3 activation after 14 hrs relative to control by flow cytometry; type: functional, cell-based; conditions: Homo sapiens
HT-29 [36] = assay: Cell cycle arrest in HT29 cells by accumulation at G1 phase at 8.9 uM after 10 hrs; type: functional, Homo sapiens
T-24 [37] = assay: Cell cycle arrest in T24 cells by accumulation at subG1 phase at 5 uM after 10 hrs; type: functional, Homo sapiens
HT-29 [38] = assay: Cell cycle arrest in HT29 cells by accumulation at S phase after 24 hrs; type: functional, Homo sapiens
HT-29 [39] = assay: Cell cycle arrest in HT29 cells by accumulation at subG1 phase at 8.9 uM after 10 hrs; type: functional, Homo sapiens
T-24 [40] = assay: Effect on apoptosis in T24 cells assessed as increase in caspase 3 activation after 48 hrs relative to control by flow cytometry; type: functional, cell-based; conditions: Homo sapiens
HT-29 [41] = assay: Cell cycle arrest in HT29 cells by accumulation at subG1 phase at 8.9 uM after 8 hrs; type: functional, Homo sapiens
T-24 [42] = assay: Cell cycle arrest in T24 cells by accumulation at subG1 phase after 24 hrs; type: functional, Homo sapiens
T-24 [43] = assay: Effect on apoptosis in T24 cells assessed as DNA fragmentation after 8 hrs; type: functional, cell-based; conditions: Homo sapiens
HT-29 [44] = assay: Cell cycle arrest in HT29 cells by accumulation at G1 phase at 8.9 uM after 12 hrs; type: functional, Homo sapiens
T-24 [45] = assay: Effect on apoptosis in T24 cells assessed as increase in caspase 3 activation after 14 hrs relative to control by flow cytometry; type: functional, cell-based; conditions: Homo sapiens
HT-29 [46] = assay: Increase in cell death of HT29 cells; type: functional, cell-based; conditions: Homo sapiens, TDE = time-dependent effect
HT-29 [47] = assay: Cell cycle arrest in HT29 cells by accumulation at subG1 phase after 24 hrs; type: functional, Homo sapiens
T-24 [48] = assay: Cell cycle arrest in T24 cells by accumulation at G1 phase at 5 uM after 8 hrs; type: functional, Homo sapiens
HT-29 [49] = assay: Effect on apoptosis in HT29 cells assessed as increase in caspase 3 activation after 24 hrs relative to control by flow cytometry; type: functional, cell-based; conditions: Homo sapiens
[50] = Cytotoxicity against CRL11233 cells; type: cell-based; conditions: human
HT-29 [51] = assay: Cell cycle arrest in HT29 cells by accumulation at G2 phase at 8.9 uM after 12 hrs; type: functional, Homo sapiens
T-24 [52] = assay: Cell cycle arrest in T24 cells by accumulation at S phase at 5 uM after 8 hrs; type: functional, Homo sapiens

Question: Which results are given for `CCC1(O)C(=O)OCc2c1cc1n(c2=O)Cc2cc3ccccc3nc2-1` (single isomer, unassigned) [CAMPTOTHECIN]?
Answer: IC50 (T-24 [1]): 6 nM; IC50 (HT-29 [2]): 14 nM; IC50 (MDA-MB-231 [3]): 291 nM

Question: Which Activity (HT-29 [4]) does the source give for `COc1ccc(CNc2nc(NCc3ccc(OC)cc3)c3cccnc3n2)cc1` here?
Answer: 34%

Question: And the Activity (T-24 [5])?
Answer: 28%

Question: And the Activity (HT-29 [6])?
Answer: 36%

Question: What about the Activity (Caspase-3 (Homo sapiens) [7]) of the same compound?
Answer: inactive

Question: What about the Activity (T-24 [8]) of the same compound?
Answer: 43%

Question: What about the Activity (Caspase-3 (Homo sapiens) [9]) of the same compound?
Answer: inactive

Question: And the Activity [10]?
Answer: Non-toxic

Question: And the Activity (HT-29 [11])?
Answer: Active

Question: And the Activity (T-24 [12])?
Answer: tde

Question: What about the Activity (HT-29 [13]) of the same compound?
Answer: Active

Question: What about the Activity (T-24 [14]) of the same compound?
Answer: 36%

Question: And the Activity (T-24 [15])?
Answer: 40%

Question: What about the Activity (MDA-MB-231 [16]) of the same compound?
Answer: tde

Question: What about the Activity (T-24 [17]) of the same compound?
Answer: Active

Question: What about the Activity (HT-29 [18]) of the same compound?
Answer: 17%

Question: And the Activity (HT-29 [19])?
Answer: 30%

Question: What about the Activity (T-24 [20]) of the same compound?
Answer: 13%

Question: What about the Activity (HT-29 [21]) of the same compound?
Answer: 38%

Question: What about the Activity (T-24 [22]) of the same compound?
Answer: 10%

Question: What about the Activity (T-24 [23]) of the same compound?
Answer: 26%

Question: What about the Activity (T-24 [24]) of the same compound?
Answer: 7%

Question: And the Activity (HT-29 [25])?
Answer: 17%

Question: And the IC50 (T-24 [1])?
Answer: 5000 nM

Question: What about the Activity (T-24 [26]) of the same compound?
Answer: 13%

Question: And the Activity (HT-29 [27])?
Answer: 19%

Question: And the Activity (HT-29 [28])?
Answer: 35%

Question: And the IC50 [29]?
Answer: 1500 nM

Question: What about the Activity (HT-29 [30]) of the same compound?
Answer: 52%

Question: What about the Activity (T-24 [31]) of the same compound?
Answer: 28%

Question: What about the Activity (T-24 [32]) of the same compound?
Answer: 42%

Question: What about the Activity (Caspase-3 (Homo sapiens) [33]) of the same compound?
Answer: inactive

Question: What about the Activity (T-24 [34]) of the same compound?
Answer: 38%

Question: And the Activity (HT-29 [35])?
Answer: Active

Question: And the Activity (HT-29 [36])?
Answer: 22%

Question: What about the Activity (T-24 [37]) of the same compound?
Answer: 18%

Question: What about the Activity (HT-29 [38]) of the same compound?
Answer: 11%

Question: What about the Activity (HT-29 [39]) of the same compound?
Answer: 25%

Question: What about the Activity (T-24 [40]) of the same compound?
Answer: Active

Question: And the Activity (HT-29 [41])?
Answer: 8%

Question: What about the IC50 (HT-29 [2]) of the same compound?
Answer: 8900 nM

Question: And the Activity (T-24 [42])?
Answer: 6%

Question: What about the Activity (T-24 [43]) of the same compound?
Answer: Active

Question: And the Activity (HT-29 [44])?
Answer: 17%

Question: What about the Activity (T-24 [45]) of the same compound?
Answer: Active

Question: What about the Activity (HT-29 [46]) of the same compound?
Answer: tde

Question: What about the Activity (HT-29 [47]) of the same compound?
Answer: 7%

Question: And the Activity (T-24 [48])?
Answer: 36%

Question: And the Activity (HT-29 [49])?
Answer: Active

Question: And the Activity [50]?
Answer: Non-toxic

Question: And the Activity (HT-29 [51])?
Answer: 33%

Question: And the Activity (T-24 [52])?
Answer: 13%
